# Measurements from US8258100B2, “Ligand/lytic peptide methods of use” (Board of Supervisors of Louisiana State University and …, priority 1997, dated 2012).
# How the values were obtained:
# [1] = tested on: pituitary basophilic (gonadotropic) cells; test: rat pituitary gland sections in tissue culture, histology after treatment; type: cell-based; settings: ten hours after treatment, 37° C.; GnRH 5 ng/mL; hecate 50 μM; GnRH 5 ng/mL 15 minutes, wash, then hecate 50 μM; modified GnRH/hecate 50 μM
# Method: The pituitary gland of an adult female rat was harvested and divided into six sections of approximately equal size. One section was placed in each of six wells containing tissue culture medium at 37° C. A different treatment was applied to each well, as described below. Ten hours after treatment, the tissue from each well was fixed, and the histology of each was examined microscopically.
# [2] = tested on: sexually mature female rats; test: sexually mature female rats, double intravenous treatment, necropsy two weeks later; type: in vivo, rat; settings: IV twice 24 hours apart, two weeks after, GnRH/hecate 2 x 0.5 mg, GnRH 162 μg then 15 minutes later hecate 337 μg
# Description: Eighteen sexually mature, mixed breed, female rats were randomly assigned to one of six groups containing three rats each. Each group of rats received a double treatment intravenously, as described below. Two weeks after the treatment, the rats were sacrificed and necropsied. The reproductive and endocrine organs were sectioned, weighed, and examined histologically.
# [3] = tested on: bovine small luteal cells; test: in vitro lysis of bovine small luteal cells (Trypan Blue exclusion, lactic dehydrogenase release); type: cell-based, cattle; settings: 22 hr incubation
# Method: We studied in vitro lysis of bovine luteal cells with GnRH-hecate conjugate and with hecate-bLH conjugate (SEQ. ID NO. 12). (The bLH component of the conjugate is a 15-mer fragment of the beta chain of luteinizing hormone, SEQ. ID NO. 11). Small luteal cells were collected from cattle corpora lutea post-slaughter.
# Small luteal cells in culture were incubated with one of the following treatments for 22 hours, and were then examined for viability using Trypan Blue exclusion and release of lactic dehydrogenase.
# bovine granulosa cells = test: in vitro lysis of bovine granulosa cells; type: cell-based; settings: hecate alone, versus small luteal cells
# Description: We also studied in vitro lysis of bovine granulosa cells with GnRH-hecate conjugate and with hecate-bLH conjugate. Granulosa cells were isolated from bovine pre-ovulatory follicles. (Granulosa cells are hormonally active cells with numerous LH receptors.) Our experiments with granulosa cells were otherwise generally similar to those described above for Examples 24-31.
# DU145 cells = test: in vitro lysis of human prostate cancer cells, Trypan blue exclusion; type: cell-based; settings: 22 hours; GnRH-hecate 50 μM; free hecate 30 μM; hecate-bLH 90 or 60 μM
# Description: LNCaP FGC and DU145 human prostate cancer cell lines were purchased from the American Type Culture Collection (ATCC, Rockville Md.), ATCC accession numbers CRL 1740 and HTB-81, respectively. The LNCaP FGC adenocarcinoma cell line was originally obtained from a person. LNCaP FGC cells are sensitive to dihydrotestosterone and to estrogens (A+). The DU145 carcinoma was originally isolated from the brain of a person with metastatic carcinoma of the prostate; this cell line is not sensitive to steroid hormones (A−).
# Cells were detached from culture flasks, and 1000 cells/well were transferred to 24 well culture plates. The cells were incubated for 24 hours with 10% calf serum. Cells were subsequently incubated without serum for 48 hours. Cells were then incubated for 22 hours with one of the following treatments:
# Trypan blue exclusion was used to assess viability of the cells after treatment. […] However, treatment with a lytic peptide alone may not be selective in vivo unless specific cell types are separately stimulated, for example by hormones controlling their activity.
substance,measurement,setting,value
hecate: amphipathic lytic peptide; synthetic peptide analog of melittin (SEQ. ID NO. 2) (FALALKALKKALKKLKKALKKAL) [reference compound],histology of pituitary tissue after treatment,[1],appeared normal
same,ovarian function / histology,[2],normal ovarian function
same,cell death of small luteal cells,[3]; 1 μM,did not differ significantly from negative control
same,killing of small luteal cells,[3]; 5 μM,approximately 50%
same,killing of small luteal cells,[3]; 10 μM,Significant killing
same,susceptibility of granulosa cells to killing,bovine granulosa cells,much more susceptible to killing by hecate alone than were the small luteal cells
same,killing of cells (viability),DU145 cells,killed by hecate alone
